Literature values as cited in paper PMC10275055, “Preventing recurrence in Sonic Hedgehog Subgroup Medulloblastoma using the OLIG2 inhibitor CT-179” (Research Square, 2023).

Tested on: OLIG2 dimerization and DNA binding
Parameters: method as in PMID 26517684, PMID 31953259
Conditions: cited from earlier work

CCN1CCCC(Nc2cc(C)nc(/N=C(\N)Nc3ccc(Cl)c(Cl)c3)n2)C1 (stereo not shown) [SKOG102]
effect on OLIG2 dimerization and DNA binding: disrupts OLIG2 dimerization and DNA binding
